Measurements from article PMC6102691, “Identification of a novel ligand for the ATAD2 bromodomain with selectivity over BRD4 through a fragment growing approach” (Organic & Biomolecular Chemistry, 2018).

Tests used:
[1] = target: T1, GST-ATAD2 bromodomain / biotinylated acetylated histone H4 peptide (Homo sapiens, UniProt Q6PL18); assay: ATAD2-histone displacement HTRF assay; type: binding; settings: for IC50: HTRF format assay, highest concentration 1000 μM; for ATAD2 LE: Ligand efficiency (LE) = 1.4(–log IC50)/N, N = number of non-hydrogen atoms, from HTRF IC50
T1 construct: 981-1108; made in house; host or cells: Escherichia coli BL21 (DE3) pLysS, plasmid pGEX-6P-1
T1 sequence (Q6PL18 981-1108): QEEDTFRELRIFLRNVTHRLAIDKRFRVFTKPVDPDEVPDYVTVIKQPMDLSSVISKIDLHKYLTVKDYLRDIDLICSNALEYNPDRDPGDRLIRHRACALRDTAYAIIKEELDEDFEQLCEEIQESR
Description: (§1) Surface plasmon resonance (SPR) was used to assess the direct binding of the fragments and provide Kd values for binding to both ATAD2 and BRD4. SPR can yield artefactual data where the concentration of a small-molecular analyte exceeds ∼250 μM, and accordingly, this was the highest concentration used in the assays.
1.1 Protein Purification.
The ATAD2 bromodomain 981-1108 was expressed with an N-terminal GST fusion from the pGEX-6P-1 plasmid. The plasmids were transformed into BL21 (DE3) pLysS Escherichia coli (Novagen) and then the cells grown in luria bertani (LB) media at 37 °C until an OD600 of 0.6 was reached. The temperature was reduced to 20 °C and expression induced using 0.2 mM Isopropyl β-D-1-thiogalactopyranoside (IPTG). The cells were harvested after overnight incubation and resuspended in buffer A (20 mM HEPES pH 7.4, 100 mM NaCl, 5 mM Dithiothreitol (DTT)). The cells were lysed by sonication and the lysate cleared by centrifugation (50,000 x g, 4 °C, 1 hr). The protein was passed over 5ml of glutathione Sepharose 4B resin (GE Healthcare) at 4 °C. The resin was then washed with buffer A and the protein eluted with buffer A supplemented with 10 mM glutathione. The protein was then applied to a Superdex 200 26/60 gel filtration column (GE Healthcare) equilibrated in buffer […]
1.2 Isothermal Titration Calorimetry.
ATAD2 was exchanged into ITC buffer (50 mM HEPES pH7.4, 200 mM NaCl, 1 mM DTT).
ITC measurements were carried out at 25°C on a Microcal ITC 200 (Malvern Instruments Ltd, Malvern, UK). Compound 11 at 40mM, 2% DMSO was titrated into ATAD2 prepared in the cell at 150 μM, 2% DMSO. Titrations began with an initial 0.5 μL injection followed by 19x 2 μL injections of compound, with 120s spacing between each injection, and stirred at 1000 rpm throughout the experiment. Data were then analysed using Origin 7.0 (OriginLab Corp., Burlington, NC, USA) and fit with the one-set-of-sites model.
1.3 ATAD2-Histone displacement HTRF assay.
Compounds (dissolved to 100 mM in DMSO) were dispensed into black 384 well assay plates […]
(§2) 12.5 μM using an Echo 550 (Labcyte). Each well was backfilled to a final volume of 200 nl (for the […]), resulting in final DMSO concentrations of 2 %. 5 μl of GST-ATAD2 was added to each well and incubated for 30mins resulting in a final concentration of 5 nM.
(§3) 5μl of biotinylated-histone H4 peptide (SGRG-K(Ac)-GG-K(Ac)-GLG-K(Ac)-GGA-K(Ac)- RHRKVGG-K(Biotin)) was then added to each well at a final concentration of 500nM. Both GST-ATAD2 and peptide were diluted in buffer B (50 mM Tris pH 7.5, […], 1 mM DTT, 100 μg/ml bovine serum albumin (BSA)). The plate was then incubated at room temperature for 30mins and then 5 μl LanthaScreen® Tb-anti-GST Antibody (Life Technologies) at final concentration of 5 nM was added to each well and incubated for an additional 30mins. 5 μl of streptavidin-XLL65 (Cisbio Assay) at a final concentration of […] was added to each assay well. Both dyes were diluted in buffer C (50 mM Tris pH 7.5, […], 100 μg/ml BSA). The plate was incubated at room temperature for a further 30mins and then read using a PheraStar FS (BMG Labtech). The data were analysed using Graphpad […]
(§4) 1.4 Surface Plasmon Resonance (SPR).
(§5) SPR-based ligand binding assays were performed using Biacore S200 (GE Healthcare) at 25 °C using single cycle affinity.
(§6) ATAD2N1064A was achieved using standard amine coupling on a CM5 chip surface. The surface was prepared through activation with EDC/NHS, followed by injection of 10 µg/ml of respective proteins until target level 8000 RU was reached. The surface was then quenched using 1 M Ethanolamine and washed with running buffer 10 mM HEPES, 150mM NaCl, 0.01% TWEEN20, 0.5 mM TCEP and 1% DMSO with a flow rate of […]. Compounds were injected in a dose-response manner (8 concentration points ranging from 0-200 µM) in series across the control, ATAD2, BRD4, and ATAD2-N1064A flow cells using solvent correction to account for bulk refractive index changes. The reference control channel was subtracted

BRD4 = BRD4 (Homo sapiens, UniProt O60885); assay: Surface plasmon resonance (SPR) direct binding to BRD4; settings: SPR format assay; Kd above the top concentration projected by extrapolation (extrapolated Rmax from control compound)
Description: as §1, with “assays. Where the Kd exceeded this limit, projected Kds were determined by extrapolation, using the observed response units for compound binding (RU) relative to the molecular weight of a known control compound.[23]” for “assays.”
as §2, §3, §4, §5
as §6, with “subtracted […]” for “subtracted”
(§7) from immobilised channels and dose-response data was fitted using a steady state constant Rmax 1:1 binding model, using an extrapolated Rmax determined from a binding control compound in those cases where the extrapolated Kd value was greater than the top concentration used in the experiment (200 µM). K d values are reported to the nearest 100th of micromolar. 1 […]
(§8) Crystallisation was performed at 20 °C using the hanging drop vapor diffusion method.
(§9) Crystals of ATAD2 were grown by mixing 2µl ATAD2 at 7mg/ml and 2µl precipitant containing 0.1 M BIS-TRIS pH 6.5 and 2.0 M ammonium sulfate. Crystals were harvested in a diffusion solution containing 10 mM compound, 5% DMSO, 25 mM HEPES pH 7.5, 75 mM NaCl, 50 mM BIS-TRIS pH 6.5 and 1.0 M Ammonium Sulfate for 48hrs. Prior to data collection the crystals were cryo protected with the addition of 25% (v/v) ethylene glycol to the diffusion solution. X-ray diffraction data were recorded at Diamond Light Source (Harwell, Oxfordshire, UK). Data processing was carried out using XDS, POINTLESS/AIMLESS2 and other programs of the CCP4i suite3 run through the CCP4i2 gui. Structures were solved by molecular replacement using PHASER4 and pdb 3DAI as a starting model. REFMAC5 was employed for refinement, and model building was performed using COOT6. PDBs were deposited within the protein database www.pdb.org using accession codes: 11 XXXX, 15a […]

ATAD2 bromodomain = target: T2, ATAD2 bromodomain (Homo sapiens, UniProt Q6PL18); assay: Surface plasmon resonance (SPR) direct binding to ATAD2; settings: SPR format assay; Kd above the top concentration projected by extrapolation (extrapolated Rmax from control compound)
T2 construct: 981-1108; GST (N); made in house; host or cells: Escherichia coli BL21 (DE3) pLysS, plasmid pGEX-6P-1
T2 sequence (Q6PL18 981-1108): T1 sequence (Q6PL18 981-1108)
Description: as §1, §2, §3, §4, §5
as §6, with “subtracted […]” for “subtracted”
as §7, §8, §9

Which IC50 [1] does the source give for `Cc1ccc(Cn2cc3c(cc2=O)C(C)(C)C(=O)N3C)cc1` [Compound 17l] here?
The IC50 was 274 ± 75 µM.

What about the “ATAD2 LE” value [1] of the same compound?
The value was 0.23.

What about the Kd (BRD4) of the same compound?
Its Kd is 58 µM.

And the melting point?
Its melting point is 180 to 182 °C.

And the Kd (ATAD2 bromodomain)?
The Kd was greater than 200 µM.

For `CN1C(=O)C(C)(C)c2cc(=O)n(Cc3cccc(C#N)c3)cc21` [Compound 17p], which IC50 [1] is on record?
The IC50 was 668 ± 28 µM.

And the “ATAD2 LE” value [1]?
The value was 0.19.

What about the Kd (BRD4) of the same compound?
The Kd was 184 µM.

What about the Kd (ATAD2 bromodomain) of the same compound?
Its Kd is greater than 200 µM.

For `CN1C(=O)C(C)(C)c2cc(=O)n(Cc3ccccc3C(=O)O)cc21` [Compound 17q], which IC50 [1] is on record?
The IC50 was greater than 1000 µM.

And the Kd (BRD4)?
The Kd was greater than 200 µM.

What about the Kd (ATAD2 bromodomain) of the same compound?
Its Kd is greater than 2000 µM.

What does the source list for `CCC1(CC)C(=O)N(C)c2cn(Cc3ccc(Cl)cc3)c(=O)cc21` [Compound 18a]?
IC50 [1]: 163 ± 23 µM; ATAD2 LE [1]: 0.22; Kd (BRD4): > 200 µM; Kd (ATAD2 bromodomain): 107 µM

What does the source list for `CCC1(CC)C(=O)N(C)c2cn(Cc3ccc(C(F)(F)F)cc3)c(=O)cc21` [Compound 18b]?
IC50 [1]: 163 ± 37 µM; ATAD2 LE [1]: 0.20; Kd (BRD4): > 2000 µM; Kd (ATAD2 bromodomain): > 200 µM

For `CN1C(=O)C(C)(Cc2ccccc2)c2cc(=O)n(Cc3ccc(Cl)cc3)cc21` (stereo not drawn) [Compound 22a], which IC50 [1] is on record?
Its IC50 is greater than 1000 µM.

And the Kd (BRD4)?
Its Kd is greater than 2000 µM.

What about the Kd (ATAD2 bromodomain) of the same compound?
The Kd was greater than 200 µM.

Which IC50 [1] does the source give for `CN1C(=O)C(C)(Cc2ccccn2)c2cc(=O)n(Cc3ccc(Cl)cc3)cc21` (stereo not drawn) [Compound 22b] here?
The IC50 was greater than 1000 µM.

What about the Kd (BRD4) of the same compound?
The Kd was greater than 200 µM.

What about the Kd (ATAD2 bromodomain) of the same compound?
The Kd was greater than 200 µM.

For `Cc1nc(CC2(C)C(=O)N(C)c3cn(Cc4ccc(Cl)cc4)c(=O)cc32)cs1` (stereo not drawn) [Compound 22c], which IC50 [1] is on record?
The IC50 was 352 µM.

And the “ATAD2 LE” value [1]?
Its value is 0.17.

What about the Kd (BRD4) of the same compound?
Its Kd is greater than 200 µM.

And the Kd (ATAD2 bromodomain)?
Its Kd is 110 µM.

For `CN1C(=O)C(C)(CC(C)(C)C)c2cc(=O)n(Cc3ccc(Cl)cc3)cc21` (stereo not drawn) [Compound 22d], which IC50 [1] is on record?
The IC50 was 489 ± 18 µM.

And the “ATAD2 LE” value [1]?
Its value is 0.18.

What about the Kd (BRD4) of the same compound?
The Kd was greater than 2000 µM.

What about the Kd (ATAD2 bromodomain) of the same compound?
Its Kd is 125 µM.

Which IC50 [1] does the source give for `CN1C(=O)C(C)(CC2(C)COC2)c2cc(=O)n(Cc3ccc(Cl)cc3)cc21` (stereo not drawn) [Compound 22e] here?
Its IC50 is 214 µM.

What about the “ATAD2 LE” value [1] of the same compound?
Its value is 0.19.

And the Kd (BRD4)?
The Kd was greater than 2000 µM.

And the Kd (ATAD2 bromodomain)?
Its Kd is greater than 200 µM.

What does the source list for `CN1C(=O)C(C)(CC2CC2)c2cc(=O)n(Cc3ccc(Cl)cc3)cc21` (stereo not drawn) [Compound 22f]?
IC50 [1]: 304 ± 83 µM; ATAD2 LE [1]: 0.20; Kd (BRD4): > 200 µM; Kd (ATAD2 bromodomain): 113 µM
